{"source": "patent US20230212517A1", "about": "“METHODS FOR GENERATING HEMATOPOIETIC STEM CELLS” (The Brigham and Women's Hospital, Inc., priority 2018, published 2023)", "key": {"[1]": {"system": "primary transplant (recipient) mice", "test": "Delayed-type hypersensitivity assay in primary transplant mice", "format": "in vivo, mouse", "conditions": "primary transplant of treated E11.5 AGM", "protocol": "Pulsating blood vessels like conditions were stimulated in vitro using FLEXCELL FX-4000 cell stretching bioreactor machine. To analyze roles of pharmacological targets in regulating the endothelial-to-HSC transition, mouse embryo-derived AGM or whole mouse embryo were exposed ex vivo with biomechanical stretching, chemicals, or drugs. Next, hematopoietic colony formation assays were performed by incubating mouse AGM-derived cells in StemCell M3434 media for seven days. Serial transplantation of AGM-derived HSCs in lethally irradiated SJL mice were performed. The stem cell frequency upon biomechanical stretching was analyzed using a limiting dilution assay. To characterize properties of AGM-HSC-derived blood cells in primary transplants, percentage chimerism and reconstitution was measured using FACS, globin transcripts were analyzed using quantitative reverse transcriptase-PCR, myeloperoxidase amount was measured using PICOKINE ELISA kit, TCR-β rearrangement was analyzed using PCR for TCR-β locus, pre-immune IG detection was analyzed using Thermo-Fisher Mouse Ig Isotyping kit, and delayed-type hypersensitivity was analyzed by injecting sheep RBC (Rockland Immunochemicals) in the footpad of pre-sensitized mice. […]"}, "[2]": {"system": "spleen-sorted Cd3+ T cells (donor)", "test": "PCR assay for TCR-β rearrangement in donor T cells of primary transplant", "format": "in vivo, mouse", "conditions": "primary transplant of treated E11.5 AGM; Mac1+ myeloid cells negative control", "protocol": "(§1) Pulsating blood vessels like conditions were stimulated in vitro using FLEXCELL FX-4000 cell stretching bioreactor machine. To analyze roles of pharmacological targets in regulating the endothelial-to-HSC transition, mouse embryo-derived AGM or whole mouse embryo were exposed ex vivo with biomechanical stretching, chemicals, or drugs. Next, hematopoietic colony formation assays were performed by incubating mouse AGM-derived cells in StemCell M3434 media for seven days. Serial transplantation of AGM-derived HSCs in lethally irradiated SJL mice were performed. The stem cell frequency upon biomechanical stretching was analyzed using a limiting dilution assay. To characterize properties of AGM-HSC-derived blood cells in primary transplants, percentage chimerism and reconstitution was measured using FACS, globin transcripts were analyzed using quantitative reverse transcriptase-PCR, myeloperoxidase amount was measured using PICOKINE ELISA kit, TCR-β rearrangement was analyzed using PCR for TCR-β locus, pre-immune IG detection was analyzed using Thermo-Fisher Mouse Ig Isotyping kit, and delayed-type hypersensitivity was analyzed by injecting sheep RBC (Rockland Immunochemicals) in the footpad of pre-sensitized mice.\nT cells (Cd45.2^+, Cd3^+) and myeloid cells (Cd45.2^+, Mac1^+) were FACS sorted from the splenocytes of 16 week-primary transplanted mice. […]"}, "E11.5 AGM cells": {"system": "E11.5 AGM cells", "test": "Hematopoietic colony formation unit (CFU) and FACS assays on E11.5 AGM cells", "format": "cell-based, mouse", "conditions": "substance alone vs. control", "protocol": "as §1\nE11.5 AGM were harvested from C57BL6/J Cd45.2 mouse embryos, and a single cell suspension of a three-embryo equivalent of cells was seeded on each well of a BioFlex six-well culture plate (FlexCell). We cultured cells overnight with the application of cyclic strain (Flexcell® FX4000™ Tension System) and/or treatment with chemical modulators (25-50 μM Yoda1, 1 μM Nanaomycin, 100 μM GdCl3, 1 uM GsMTx4, 5-20 μM 4αPDD, 10 uM GSK205). Next, harvested cells were used to perform transplant, fluorescence-activated cell sorting (FACS) analysis, and colony-forming unit (CFU) assays.\nE11.5 mouse embryos were harvested from the uterus of the time-mated pregnant female, into sterile glass vials containing FBS, 1 mM glucose, 1% Penicillin-Streptomycin, and/or the selected chemical modulator (25-50 μM Yoda1, 1 μM Nanaomycin, 5-20 μM 4αPDD, or 10 uM GSK205). We placed glass vials in the ex vivo incubator (BTC Engineering, Cambridge, UK) consisting of a roller apparatus (rotating ˜30 rpm), constant gas supply (21% O2, 5% CO2, balance N2) and constant temperature at 37° C. After 24 hours, AGM were harvested to analyze the formation of hematopoietic cells by FACS and CFU assays.\nFor CFU assays, cells from AGM explant or ex vivo were plated in METHOCULT GF M3434 media (StemCell Technologies). Seven days after seeding, we analyzed their capacity to make granulocyte, erythroid, macrophage, megakaryocyte (GEMM), granulocyte macrophage (GM), granulocyte (G), macrophage (M), and erythroid (E) colonies.\nAGM cells from explants and ex vivo were stained with Sca1-Pacific-Blue (E13-161.7, Biolegend) and Flk1-APC-Cy7 (Avas 12α1, BD). Blood from transplanted mice was stained with the following antibody cocktail: Cd45.2-Pacific-Blue (104, Biolegend), Cd45.1-FITC (A20, Biolegend), Cd3-PE (145-2C11, Biolegend), Cd8-PE (53-6.7, Biolegend), Mac1-APC (M1/70, Biolegend), Gr1-APC (108412, Biolegend), Cd19-APC-CY7 (6D5, Biolegend), B220-APC-CY7 (RA3-6B2, Biolegend)."}, "[3]": {"system": "cd41:eGFP+ HSCs emerging from flk1:mCherry+ endothelial cells", "test": "Time-lapse confocal imaging of cd41:eGFP+ HSCs emerging from flk1:mCherry+ endothelial cells in transgenic embryos", "format": "in vivo, zebrafish", "conditions": "26-42 hpf", "protocol": "Mice were purchased Cd45.2 (C57BL6/J) and Cd45.1 (SJL) from The Jackson Laboratory and zebrafish morpholinos from GeneTools. Microangiography was performed by injecting fluorescent-labeled dextran dye in the atrium of zebrafish heart and its passage was recorded using live imaging. Immunostaining of zebrafish heart and mouse AGM were analyzed using an inverted fluorescent microscope. Cardiac tamponade, heart rate, and pulse frequency were analyzed in zebrafish embryos using bright field imaging or time-lapse confocal microscopy. The movement of red blood cells in blood vessels was analyzed as well as the endothelial-to-HSC transition in zebrafish transgenic embryos using time-lapse confocal imaging.\nZebrafish embryos were treated with the following chemical modulators in E3 fish media: 100 uM L-NAME (Fisher Scientific), 50 uM Digitoxigenin (Sigma), 25-50 uM Yoda1 (Cayman Chemical), 1 uM Nanaomycin (Nana; Fisher Scientific), 100 uM Gadolinium chloride (GdCl3; Sigma), 5-10 uM 4α-phorbol 12, 13-didecanaote (4Apdd; Sigma), or GSK205 (10 uM).\ncd41: eGFP were crossed with flk1:mCherry zebrafish and flk1:mCherry with lcr:eGFP zebrafish and injected morpholino in their transgenic embryos. Transgenic embryos were mounted in low-melting-point agarose and a spinning-disk confocal microscope was used to perform time-lapse confocal imaging of cd41:eGFP^+ HSCs emerging from flk1^+ endothelium from 30 to 42 hpf. The relative movement of lcr:eGFP^+ red blood cells was analyzed in the context of flk1:mCherry^+ endothelium. We performed image analysis using IMARIS (Bitplane) software."}}}
{"smiles": "Clc1cccc(Cl)c1CSc1nnc(-c2cnccn2)s1", "note": "[Yoda1, 2-[5-[[(2,6-Dichlorophenyl)methyl]thio]-1,3,4-thiadiazol-2-yl]-pyrazine]", "values": [{"measurement": "T-cell mediated immune response (footpad, sheep RBC challenge)", "setting": "[1]", "result": "possess T-cell mediated immune response"}, {"measurement": "T-cell receptor β (TCRβ) locus rearrangement in donor T-cells", "setting": "[2]", "result": "display T-cell receptor β (TCR β) rearrangement"}, {"measurement": "hematopoietic colony formation (endothelial-to-hematopoietic transition)", "setting": "E11.5 AGM cells", "result": "stimulates the endothelial-to-hematopoietic transition"}, {"measurement": "HSC formation (endothelial-to-HSC transition)", "setting": "[3]; control embryos", "result": "stimulates HSC formation"}, {"measurement": "HSC formation (endothelial-to-HSC transition)", "setting": "[3]; sih-MO embryos", "result": "rescues HSC formation"}]}
